From the supplement of paper PMC10307832

How the values were obtained:
Experiment in all cases: relative viability (nuclei count vs DMSO), 5 days (fraction); higher = more cells survive
Trametinib + Alpelisib = compound: CC(=O)Nc1cccc(-n2c(=O)n(C3CC3)c(=O)c3c(Nc4ccc(I)cc4F)n(C)c(=O)c(C)c32)c1 [Trametinib] + Cc1nc(NC(=O)N2CCC[C@H]2C(N)=O)sc1-c1ccnc(C(C)(C)C(F)(F)F)c1 [Alpelisib] (partner 2 µM)
Outline: (§1)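 Five library-drug doses in √10 steps were combined with a fixed anchor-drug dose, or a single drug was given alone, by pin tool to lung cancer cell lines in 1536-well plates the day after seeding. Nuclei were stained and counted after 5 days. Relative viability is the nuclei count in treated wells over that in vehicle wells, taken as the median of duplicate plates.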

Trametinib + Crizotinib = compound: CC(=O)Nc1cccc(-n2c(=O)n(C3CC3)c(=O)c3c(Nc4ccc(I)cc4F)n(C)c(=O)c(C)c32)c1 [Trametinib] + C[C@@H](Oc1cc(-c2cnn(C3CCNCC3)c2)cnc1N)c1c(Cl)ccc(F)c1Cl [Crizotinib] (partner 1 µM)
Outline: as §1

Trametinib + Dasatinib = compound: CC(=O)Nc1cccc(-n2c(=O)n(C3CC3)c(=O)c3c(Nc4ccc(I)cc4F)n(C)c(=O)c(C)c32)c1 [Trametinib] + Cc1nc(Nc2ncc(C(=O)Nc3c(C)cccc3Cl)s2)cc(N2CCN(CCO)CC2)n1 [Dasatinib] (partner 0.075 µM)
Outline: as §1

[1] = compound: CN1C=C(C2=CC=CC=C21)/C=C\3/C4=C(C=CC=N4)NC3=O + CC(=O)c1c(C)c2cnc(Nc3ccc(N4CCNCC4)cn3)nc2n(C2CCCC2)c1=O [Palbociclib] (partner 0.5 µM)
Outline: as §1

Row | Cell Line | relative viability (Trametinib + Alpelisib; first compound 0.0025 µM) | relative viability (Trametinib + Alpelisib; first compound 0.007906 µM) | relative viability (Trametinib + Alpelisib; first compound 0.025 µM) | relative viability (Trametinib + Alpelisib; first compound 0.07906 µM) | relative viability (Trametinib + Alpelisib; first compound 0.25 µM) | relative viability (Trametinib + Crizotinib; first compound 0.0025 µM) | relative viability (Trametinib + Crizotinib; first compound 0.007906 µM) | relative viability (Trametinib + Crizotinib; first compound 0.025 µM) | relative viability (Trametinib + Crizotinib; first compound 0.07906 µM) | relative viability (Trametinib + Crizotinib; first compound 0.25 µM) | relative viability (Trametinib + Dasatinib; first compound 0.0025 µM) | relative viability (Trametinib + Dasatinib; first compound 0.007906 µM) | relative viability (Trametinib + Dasatinib; first compound 0.025 µM) | relative viability (Trametinib + Dasatinib; first compound 0.07906 µM) | relative viability (Trametinib + Dasatinib; first compound 0.25 µM) | relative viability ([1]; first compound 0.02 µM) | relative viability ([1]; first compound 0.06325 µM) | relative viability ([1]; first compound 0.2 µM) | relative viability ([1]; first compound 0.6325 µM) | relative viability ([1]; first compound 2 µM)
1 | NCI-H2405 | 0.599 | 0.42 | 0.339 | 0.379 | 0.315 | 0.864 | 0.836 | 0.685 | 0.561 | 0.521 | 0.209 | 0.187 | 0.19 | 0.173 | 0.183 | 0.576 | 0.526 | 0.524 | 0.535 | 0.541
2 | NCI-H3122 | 0.466 | 0.395 | 0.224 | 0.234 | 0.21 | 0.238 | 0.228 | 0.221 | 0.199 | 0.209 | 0.767 | 0.512 | 0.13 | 0.144 | 0.146 | 0.137 | 0.181 | 0.202 | 0.183 | 0.235
3 | PC-3 [JPC-3] | 0.998 | 0.968 | 0.864 | 0.806 | 0.511 | 1.02 | 0.968 | 0.919 | 0.737 | 0.601 | 1.06 | 0.927 | 0.848 | 0.823 | 0.743 | 0.535 | 0.521 | 0.545 | 0.562 | 0.515
4 | PC-14 | 0.994 | 0.892 | 0.949 | 0.654 | 0.46 | 0.994 | 0.909 | 0.815 | 0.686 | 0.55 | 0.265 | 0.234 | 0.266 | 0.13 | 0.0632 | 0.539 | 0.536 | 0.55 | 0.617 | 0.545
5 | RERF-LC-KJ | 0.775 | 0.759 | 0.645 | 0.657 | 0.472 | 0.794 | 0.819 | 0.778 | 0.664 | 0.763 | 0.7 | 0.741 | 0.794 | 0.731 | 0.554 | 0.937 | 1.07 | 0.988 | 0.963 | 1.12
6 | SK-LU-1 | 0.966 | 0.841 | 0.7 | 0.361 | 0.226 | 0.976 | 0.87 | 0.775 | 0.619 | 0.371 | 0.192 | 0.183 | 0.148 | 0.15 | 0.159 | 0.282 | 0.367 | 0.369 | 0.342 | 0.399
7 | SK-MES-1 | 0.722 | 0.542 | 0.323 | 0.31 | 0.184 | 0.997 | 0.991 | 0.792 | 0.543 | 0.334 | 0.324 | 0.313 | 0.208 | 0.171 | 0.156 | 0.243 | 0.325 | 0.316 | 0.321 | 0.264
8 | SW 1573 | 0.629 | 0.619 | 0.564 | 0.457 | 0.43 | 0.781 | 0.603 | 0.601 | 0.518 | 0.462 | 0.513 | 0.389 | 0.371 | 0.323 | 0.266 | 0.319 | 0.391 | 0.426 | 0.424 | 0.485
